Results as given in patent publication US20240252677A1, “ONE-COMPONENT DELIVERY SYSTEM FOR NUCLEIC ACIDS” (The Trustees of the University of Pennsylvania, priority 2021, published 2024).

Columns and labels:
[1] = test system: HEK293T cells; test: In vitro Luc-mRNA transfection, luciferase luminescence expression in HEK293T cells; assay type: cell-based, human; set-up: unit not given here
Procedure: In Vitro Transfection Activity of DNPs in Human Embrionic Kidney (HEK) 293T Cells: HEK293T cells were seeded into 96-well plates (20,000 cells/well/200 μL) and cultured for 24 h at 37° C. in 5% CO2 complete cell culture media. Screening experiments were performed with nonoptimized DNPs containing naked nucleoside-modified mRNA (Karikó, et al., Immunity 2005, 23, 165-175; Pardi, et al., Methods Mol. Biol. 2013, 969, 29-42), of molar mass 664,341 encoding firefly luciferase (mRNA-Luc). A constant concentration of mRNA-Luc of 125 ng/well was used. The transIT (TransIT-mRNA transfection Kit from Mirus Bio) and MC3-based LNPs (MC3: DLin-MC3-DMA, which is the FDA approved LNP for mRNA delivery) were used as positive controls for cell transfection at a concentration of mRNA-Luc of 125 ng/well, identical to that of the tested DNPs. Subsequently cells were cultured for 24 h, the medium was aspirated under reduced pressure by a glass pipette and cells were lysed with 30 μL/well of cell culture lysis reagent (Promega). The luminescence intensity corresponding to the luciferase protein expressed was characterized and analyzed.
In vitro mRNA Delivery: Human embryonic kidney (HEK) 293T cells (American Type Culture Collection) were cultured in Dulbecco's modified Eagle's medium (DMEM) supplemented with 10% inactivated fetal bovine serum (FBS) (Gemini Bio-Products), 2 mM L-glutamine and 100 U/mL penicillin/streptomycin (Life Technologies) (complete medium). For in vitro screening experiments, HEK293T cells were seeded into 96-well plates (20,000 cells/well/200 μL) and cultured for 24 h in at 37° C. and 5% CO2 in complete media. Cell were transfected with IAJDs with encapsulated naked nucleoside-modified mRNA encoding firefly luciferase (mRNA-Luc) with fixed concentration of mRNA-Luc, 125 ng per well. The transIT (TransIT®-mRNA Transfection Kit, Mirus Bio) was used as a positive control for cell transfection, accordingly per manufacturer protocol and added to cells at the concentration of mRNA-Luc, 125 ng per well, the same as for tested particles. Cells were further cultured for 24 h, then medium was aspirated, and cells were lysed with 30 μL/well of cell culture lysis reagent (Promega). For the characterization of luminescence intensity, 2.5 μL of the lysed cells was mixed with 10 μL of luciferase assay substrate and luminescence was analyzed using a MiniLumat LB 9506 luminometer (Berthold/EG&G; Wallac).
Luminescence characterization for in vitro transfection experiments was performed by determining the luminescence intensity for in vitro Luc-mRNA transfection experiments using a MiniLumat LB 9506 luminometer (Berthold/EG&G; Wallac).
For in vitro Luc-mRNA transfection screening experiments, human embryonic kidney 293 cells (HEK 293) were seeded into 96-well plates (20,000 cells/well/200 μL) and cultured for 18-20 hours at 37° C., 5% CO2 in complete Dulbecco's modified Eagle's medium (DMEM) supplemented with 2 mM L-glutamine (Life Technologies), 100 U/mL penicillin/streptomycin (Invitrogen) and 10% fetal bovine serum (FBS, Gemini Bio-Products). Cells were transfected with DNPs with encapsulated naked nucleoside-modified mRNA encoding firefly luciferase (Luc-mRNA) at constant concentration of Luc-mRNA, 125 ng per well. Luc-mRNA complexed with TransIT (TransIT®-mRNA Transfection Kit, Mirus Bio) or encapsulated in FDA approved MC3-based LNPs were used as positive controls for cell transfection, at the concentration of Luc-mRNA of 125 ng per well, the same as for tested DNPs. After transfection cells were further cultured at 37° C., 5% CO2 for 18-20 hours, then medium was aspirated and cells were lysed with luciferase cell culture lysis reagent (30 μL/well) (Promega, Madison, WI). […]

[2] = test system: spleen; test: In vivo mRNA delivery, IVIS imaging of organs: spleen; set-up: species or system mice; key to Organs with luminescence: spleen: strong: Strong meant the luminescence intensity in that organ was relatively high, compared to other organs; weak: Weak meant the luminescence intensity in that organ was relatively low, compared to other organs; details: for Organs with luminescence: spleen (weak/strong): Table 14; for Organs with luminescence: spleen: Table 17, mice, IVIS, 4-6 h after injection, intensity relative to other organs
Procedure: The exposure time was 1 min.
Tissue luminescence signal was measured on the IVIS imaging system using an exposure time of 60 seconds using medium binning (binning=8) to ensure that the signal obtained was within operative detection range. […] Bioluminescence imaging was performed as described above.
Tissue luminescence signal was measured on the IVIS imaging system using a certain exposure time (60, 30 or 15 seconds) and medium binning (binning=8) to ensure that the signal obtained was within operative detection range.

[3] = Acetate buffer 10 mM pH 4.0, CIAJD 4 mg/mL, CLuc-mRNA 0.05 mg/mL, HEK293T, 125 ng/well
[4] = Citrate buffer 10 mM pH 3.0, CIAJD 4 mg/mL, CLuc-mRNA 0.05 mg/mL, HEK293T, 125 ng/well
[5] = HEK293T cells, Luc-mRNA 125 ng/well, n=3
[6] = Table 16, HEK 293T cells, 125 ng/well, n=3

Row | Molecule | Luminescence [1, 5] | Organs with luminescence: spleen (weak/strong) ([2]; imaging 5 h after injection) | also measured
1 | 3,5-Bis(dodecyloxy)benzyl 3-(4-methylpiperazin-1-yl)propanoate [IAJD 84] |  |  | Luminescence [1, 3]: 3,876; Luminescence ([1]; Acetate buffer 10 mM pH 5.2, CIAJD 4 mg/mL, CLuc-mRNA 0.10 mg/mL, HEK293T, 125 ng/well): 18,268; Luminescence [1, 4]: 819
2 | CCCCCCCCCCCCOc1cc(COC(=O)CCCN2CCCCC2)cc(OCCCCCCCCCCCC)c1 [IAJD 65, 3,5-Bis(dodecyloxy)benzyl 4-(piperidin-1-yl)butanoate] | 18 |  | 
3 | CCCCCCCCCCCCOc1cc(COC(=O)CCCN2CCN(CCO)CC2)cc(OCCCCCCCCCCCC)c1 [IAJD 71, 3,5-Bis(dodecyloxy)benzyl 4-(4-(2-hydroxyethyl)piperazin-1-yl)butanoate] | 473,548 | spleen (strong) | Organs with luminescence: spleen [2]: spleen (strong)
4 | CCCCCCCCCCCCCCOc1cc(COC(=O)CCCN2CCN(C)CC2)cc(OCCCCCCCCCCCCCC)c1 [IAJD 74, 3,5-Bis(tetradecyloxy)benzyl 4-(4-methylpiperazin-1-yl)butanoate] | 3,926 | spleen (strong) | 
5 | CCCCCCCCCCCCCCCCOc1cc(COC(=O)CCCN2CCN(C)CC2)cc(OCCCCCCCCCCCCCCCC)c1 [IAJD 75, 3,5-Bis(hexadecyloxy)benzyl 4-(4-methylpiperazin-1-yl)butanoate] | 68,572 | spleen (strong) | 
6 | CCCCC(CC)COc1cc(COC(=O)CCCN2CCN(C)CC2)cc(OCC(CC)CCCC)c1 (stereo not shown) [IAJD 76, 3,5-Bis((2-ethylhexyl)oxy)benzyl 4-(4-methylpiperazin-1-yl)butanoate] | 17 | spleen (strong) | 
7 | CCCCCCCCCOc1cc(COC(=O)CCCN2CCN(C)CC2)cc(OCCCCCCCCC)c1 [IAJD 77, 3,5-Bis(nonyloxy)benzyl 4-(4-methylpiperazin-1-yl)butanoate] | 129 | spleen (strong) | 
8 | CCCCCCCCCCCCOc1ccc(COC(=O)CCCN2CCN(C)CC2)cc1OCCCCCCCCCCCC [IAJD 78, 3,4-Bis(dodecyloxy)benzyl 4-(4-methylpiperazin-1-yl)butanoate] | 8,688 | spleen (weak) | 
9 | CCCCCCCCCCCCOc1cc(COC(=O)CCCN2CCN(C)CC2)cc(OCCCCCCCCCCCC)c1OCCCCCCCCCCCC [IAJD 79, 3,4,5-Tris(dodecyloxy)benzyl 4-(4-methylpiperazin-1-yl)butanoate] | 27,615 |  | Organs with luminescence: spleen (weak/strong) ([2]; imaging 6 h after injection): spleen (strong)
10 | CCCCCCCCCCCCCCCCCCOc1cc(COC(=O)CCCN2CCN(C)CC2)cc(OCCCCCCCCCCC)c1 [IAJD 81, 3-(Octadecyloxy)-5-(undecyloxy)benzyl 4-(4-methylpiperazin-1-yl)butanoate] | 206,161 |  | Organs with luminescence: spleen (weak/strong) ([2]; imaging 6 h after injection): spleen (weak); Organs with luminescence: spleen [2]: spleen (weak)
11 | CCCCCCCCCCCCOCC(COCCCCCCCCCCCC)(COCCCCCCCCCCCC)COC(=O)CCCN1CCN(C)CC1 [IAJD 82, 3-(Dodecyloxy)-2,2-bis((dodecyloxy)methyl)propyl 4-(4-methylpiperazin-1-yl)butanoate] | 17 | Spleen (strong) | 
12 | CCCCCCCCCCCCOCC(COCCCCCCCCCCCC)(COCCCCCCCCCCCC)COC(=O)CCCN1CCN(CCO)CC1 [IAJD 83, 3-(Dodecyloxy)-2,2-bis((dodecyloxy)methyl)propyl 4-(4-(2-hydroxyethyl)piperazin-1-yl)butanoate] | 68,691 | spleen (strong) | 
13 | CCCCCCCCCCCCOc1cc(COC(=O)CCN2CCN(C)CC2)cc(OCCCCCCCCCCCC)c1 [IAJD 84, 3,5-Bis(dodecyloxy)benzyl 3-(4-methylpiperazin-1-yl)propanoate] | 205 | spleen (strong) | 
14 | CCCCCCCOC(=O)CCCCOc1cc(COC(=O)CCCN2CCN(C)CC2)cc(OCCCCC(=O)OCCCCCCC)c1 [IAJD 85, Diheptyl 5,5′-((5-(((4-(4-methylpiperazin-1-yl)butanoyl)oxy)methyl)-1,3-phenylene)bis(oxy)) dipentanoate] | 47,369 | spleen (strong) | 
15 | CCCCCCCCCCCCCCCCOc1cc(COC(=O)CCCN2CCN(C)CC2)cc(OCCCCCCCCCCC)c1 [IAJD 86, 3-(Hexadecyloxy)-5-(undecyloxy)benzyl 4-(4-methylpiperazin-1-yl)butanoate] | 47,066 | spleen (weak) | Organs with luminescence: spleen [2]: spleen (weak)
16 | CCCCC(CC)COc1cc(COC(=O)CCCN2CCN(CCO)CC2)cc(OCC(CC)CCCC)c1 (stereo not shown) [IAJD 87, 3,5-Bis((2-ethylhexyl)oxy)benzyl 4-(4-(2-hydroxyethyl)piperazin-1-yl)butanoate] | 33 |  | Organs with luminescence: spleen (weak/strong) ([2]; imaging 6 h after injection): spleen (strong)
17 | CCCCCCCCCCCCOc1cc(COC(=O)c2cc(OCCOCCOCCCC(=O)CCCN3CCCCC3)c(OCCOCCOCCOCc3ccccc3)c(OCCOCCOCCOC(=O)CCCN3CCCCC3)c2)cc(OCCCCCCCCCCCC)c1 [IAJD 110] |  |  | Luminescence [1, 6]: 47
18 | CCCCCCCCCCCCCCOc1cc(COC(=O)c2cc(OCCOCCOCCCC(=O)CCCN3CCCCC3)c(OCCOCCOCCOCc3ccccc3)c(OCCOCCOCCOC(=O)CCCN3CCCCC3)c2)cc(OCCCCCCCCCCC)c1 [IAJD 156] |  |  | Luminescence [1, 6]: 59
19 | CCCCCCCCCCCCCCCOc1cc(COC(=O)c2cc(OCCOCCOCCCC(=O)CCCN3CCCCC3)c(OCCOCCOCCOCc3ccccc3)c(OCCOCCOCCOC(=O)CCCN3CCCCC3)c2)cc(OCCCCCCCCCCC)c1 [IAJD 157] |  |  | Luminescence [1, 6]: 47
20 | CCCCCCCCCCCCCCCCCOc1cc(COC(=O)c2cc(OCCOCCOCCCC(=O)CCCN3CCCCC3)c(OCCOCCOCCOCc3ccccc3)c(OCCOCCOCCOC(=O)CCCN3CCCCC3)c2)cc(OCCCCCCCCCCC)c1 [IAJD 158] |  |  | Luminescence [1, 6]: 83
21 | CCCCCCCCCCCCCCCCCOc1cc(CNC(=O)c2cc(OCCOCCOCCOC(=O)CCCN3CCCCC3)c(OCCCOCOCCOCc3ccccc3)c(OCCOCCOCCOC(=O)CCCN3CCCCC3)c2)cc(OCCCCCCCCCCCCCCCCC)c1 [IAJD 159] |  |  | Luminescence [1, 6]: 24,055
22 | Diheptyl 5,5′-((5-(((4-(4-methylpiperazin-1-yl)butanoyl)oxy)methyl)-1,3-phenylene)bis(oxy)) dipentanoate [IAJD 85] |  |  | Luminescence [1, 3]: 734; Luminescence ([1]; Acetate buffer 10 mM pH 4.0, CIAJD 4 mg/mL, CLuc-mRNA 0.10 mg/mL, HEK293T, 125 ng/well): 2,498; Luminescence [1, 4]: 1,176
